According to paper PMC7874389 (Nature, 2020):

Legend:
larval zebrafish = assay: Larval zebrafish behavioral profiling; assay type: in vivo; conditions: 1–200 μM, 7 dpf, battery of light and acoustic stimuli
[1] = tested on: mouse primary sensory cortex; assay: In vivo spine dynamics, transcranial 2-photon imaging; conditions: 24 h after treatment; DOI 10 mg/kg, TBG 50 mg/kg i.p.
C57BL/6J mice [2] = assay: Head-twitch response; conditions: i.p., 5-MeO-DMT 10 mg/kg, IBG and TBG fumarate salts 10 and 50 mg/kg
C57BL/6J mice [3] = conditions: cited from earlier work
[4] = tested on: rodents trained to discriminate DOM from saline; conditions: cited from earlier work
[5] = tested on: larval zebrafish expressing GCaMP5; assay: Larval zebrafish seizure experiments; assay type: in vivo; conditions: IBO and TBG 50 μM, PTZ 15 mM, 1 h
C57/BL6J mice = assay: Forced swim test in the absence of UMS; assay type: in vivo, mouse

Molecule: O=C(CCCN1CCC(O)(c2ccc(Cl)cc2)CC1)c1ccc(F)cc1 [haloperidol]
- behavioral profile versus vehicle and lethal (eugenol) controls (larval zebrafish): more closely resembling the lethal control

Molecule: O=C1NCCN1CCN1CCC(c2cn(-c3ccc(F)cc3)c3ccc(Cl)cc23)CC1 [sertindole]
- behavioral profile versus vehicle and lethal (eugenol) controls (larval zebrafish): more closely resembling the lethal control

Molecule: COc1cc(CC(C)N)c(OC)cc1I (centres unmarked) [DOI, 2,5-dimethoxy-4-iodoamphetamine]
- spine elimination [1]: without impacting spine elimination
- spine formation [1]: increased spine formation

Molecule: COc1ccc2[nH]cc(CCN(C)C)c2c1 [5-MeO-DMT, 5-methoxy-N,N-dimethyltryptamine]
- head-twitch response (hallucinogenic potential) (C57BL/6J mice [2]): produces a robust HTR

Molecule: COc1ccc2c(CCN(C)C)c[nH]c2c1 [6-MeO-DMT]
- head-twitch response (C57BL/6J mice [3]): does not produce a head-twitch response
- substitution for DOM [4]: did not substitute for the hallucinogen 2,5-dimethoxy-4-methylamphetamine (DOM) at any dose

Molecule: picrotoxin
- behavioral profile versus vehicle and lethal (eugenol) controls (larval zebrafish): produce behavioral phenotypes more closely resembling a lethal phenotype

Molecule: C1CCc2nnnn2CC1 [PTZ, pentylenetetrazole]
- behavioral profile versus vehicle and lethal (eugenol) controls (larval zebrafish): produce behavioral phenotypes more closely resembling a lethal phenotype
- seizurogenic potential (neural activity, GCaMP5 fluorescence) [5]: excessive neural activity

Molecule: O=S1OCC2C(CO1)C1(Cl)C(Cl)=C(Cl)C2(Cl)C1(Cl)Cl (centres unmarked) [endosulfan]
- behavioral profile versus vehicle and lethal (eugenol) controls (larval zebrafish): produce behavioral phenotypes more closely resembling a lethal phenotype

Molecule: CNC1(c2ccccc2Cl)CCCCC1=O (centres unmarked) [KET, ketamine]
- FST immobility (C57/BL6J mice; 24 h following administration, TBG 50 mg/kg, ketamine 3 mg/kg i.p.): significantly reduced immobility
- durability of FST effect (C57/BL6J mice; 7 d post drug administration): appeared to be more durable

Molecule: CC(C)(C)c1ccc(C(O)CCCN2CCC(C(O)(c3ccccc3)c3ccccc3)CC2)cc1 (centres unmarked) [terfenadine]
- behavioral profile versus vehicle and lethal (eugenol) controls (larval zebrafish): more closely resembling the lethal control
